# Test results as given in patent publication US20060247227A1, “Substituted piperidines as histamine h3 receptor ligands” (priority 2003, published 2006).
# Where a name gives a salt, the structure may show the parent alone.
# Test system: not given
# Test: not given
# Details: not given
row,melting point [°C],SMILES
1,109.7,"CNC(=O)c1ccc(N2CCC(OC3CCN(C4CCC4)CC3)CC2)cn1 [Example E38A, 5-{4-[(1-Cyclobutyl-4-piperidinyl)oxy]-1-piperidinyl}-N-methyl-2-pyridinecarboxamide]"

# Molecular target: T1, histamine H3 receptor (Homo sapiens, UniProt Q9Y5N1)
# T1 construct: expressed in transfected cells; host or cells: CHO K1 cells carrying pSwitch, transfected with pGeneH3 and induced with mifepristone; clone 3H3; membranes
# T1 sequence (Q9Y5N1 whole entry): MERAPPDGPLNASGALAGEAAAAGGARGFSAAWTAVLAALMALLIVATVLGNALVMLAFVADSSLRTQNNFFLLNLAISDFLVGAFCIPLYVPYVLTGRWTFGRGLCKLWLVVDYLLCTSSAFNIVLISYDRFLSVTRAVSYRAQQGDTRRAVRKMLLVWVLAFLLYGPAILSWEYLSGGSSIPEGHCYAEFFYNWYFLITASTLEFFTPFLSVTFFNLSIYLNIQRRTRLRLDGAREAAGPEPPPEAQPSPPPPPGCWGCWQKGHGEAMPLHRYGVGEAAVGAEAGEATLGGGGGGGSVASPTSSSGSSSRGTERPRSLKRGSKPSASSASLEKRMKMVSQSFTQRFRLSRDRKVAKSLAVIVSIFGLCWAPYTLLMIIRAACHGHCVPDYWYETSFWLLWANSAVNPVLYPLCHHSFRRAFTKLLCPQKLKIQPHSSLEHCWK
# Test: Histamine H3 functional antagonist assay ([35S]GTPγS, SPA, membranes of CHO K1 cells expressing the receptor)
# Format: biochemical
# Details: histamine-stimulated GTPγS binding, membranes with human H3
# Source text: A membrane preparation containing histamine H3 receptors may be prepared in accordance with the following procedures:
# (i) Generation of Histamine H3 Cell Line
# DNA encoding the human histamine H3 gene (Huvar, A. et al. (1999) Mol. Pharmacol. 55(6), 1101-1107) was cloned into a holding vector, pCDNA3.1 TOPO (InVitrogen) and its cDNA was isolated from this vector by restriction digestion of plasmid DNA with the enzymes BamH1 and Not-1 and ligated into the inducible expression vector pGene (InVitrogen) digested with the same enzymes. The GeneSwitch™ system (a system where in transgene expression is switched off in the absence of an inducer and switched on in the presence of an inducer) was performed as described in U.S. Pat. Nos. 5,364,791; 5,874,534; and 5,935,934. Ligated DNA was transformed into competent DH5α E. coli host bacterial cells and plated onto Luria Broth (LB) agar containing Zeocin™ (an antibiotic which allows the selection of cells expressing the sh ble gene which is present on pGene and pSwitch) at 50 μg ml^−1. Colonies containing the re-ligated plasmid were identified by restriction analysis. DNA for transfection into mammalian cells was prepared from 250 ml cultures of the host bacterium containing the pGeneH3 plasmid and isolated using a DNA preparation kit (Qiagen Midi-Prep) as per manufacturers guidelines (Qiagen).
# CHO K1 cells previously transfected with the pSwitch regulatory plasmid (InVitrogen) were seeded at 2×10e6cells per T75 flask in Complete Medium, containing Hams F12 (GIBCOBRL, Life Technologies) medium supplemented with 10% v/v dialysed foetal bovine serum, L-glutamine, and hygromycin ([…]), 24 hours prior to use. Plasmid DNA was transfected into the cells using Lipofectamine plus according to the manufacturers guidelines (InVitrogen). 48 hours post transfection cells were placed into complete medium supplemented with […] Zeocin™.
# 10-14 days post selection 10 nM Mifepristone (InVitrogen), was added to the culture medium to induce the expression of the receptor. 18 hours post induction cells were detached from the flask using ethylenediamine tetra-acetic acid (EDTA; 1:5000; InVitrogen), following several washes with phosphate buffered saline pH 7.4and resuspended in Sorting Medium containing Minimum Essential Medium (MEM), without phenol red, and supplemented with Earles salts and 3% Foetal Clone II (Hyclone). Approximately 1×10e7 cells were examined for receptor expression by staining with a rabbit polyclonal antibody, 4a, raised against the N-terminal domain of the histamine H3 receptor, incubated on ice for 60 minutes, followed by two washes in sorting medium. Receptor bound antibody was detected by incubation of the cells for 60 minutes on ice with a goat anti rabbit antibody, conjugated with Alexa 488 fluorescence marker (Molecular Probes). Following two further washes with Sorting Medium, cells were filtered through a 50 μm Filcon™ (BD Biosciences) and then analysed on a FACS Vantage SE Flow Cytometer fitted with an Automatic Cell Deposition Unit. Control cells were non-induced cells treated in a similar manner. Positively stained cells were sorted as single cells into 96-well plates, containing Complete Medium containing 500 μg ml^−1 Zeocin™ and allowed to expand before reanalysis for receptor expression via antibody and ligand binding studies. One clone, 3H3, was selected for membrane preparation.
# (ii) Membrane Preparation from Cultured Cells
# All steps of the protocol are carried out at 4° C. and with pre-cooled reagents. The cell pellet is resuspended in 10 volumes of buffer A2 containing 50 mM N-2-hydroxyethylpiperazine-N′-2-ethanesulfonic acid (HEPES) (pH 7.40) supplemented with […] leupeptin (acetyl-leucyl-leucyl-arginal; Sigma L2884), 25 μg/ml bacitracin (Sigma B0125), 1 mM ethylenediamine tetra-acetic acid (EDTA), 1 mM phenylmethylsulfonyl fluoride (PMSF) and 2×10e-6M pepstain A (Sigma). […]
row,Ki [nM],SMILES
1,≤ 1,"Cc1noc(-c2ccc(N3CCC(OC4CCN(C5CCC5)CC4)CC3)cc2F)n1 [Example E110, 1-Cyclobutyl-4-({1-[3-fluoro-4-(3-methyl-1,2,4-oxadiazol-5-yl)phenyl]-4-piperidinyl}oxy)piperidine]"
2,≤ 1,"CC(=O)c1ccc(N2CCC(OC3CCN(C4CCC4)CC3)CC2)cn1 [Example E111, 1-(5-{4-[(1-Cyclobutyl-4-piperidinyl)oxy]-1-piperidinyl}-2-pyridinyl)ethanone]"
3,≤ 1,"Cc1noc(-c2ccc(N3CCC(OC4CCN(C(C)C)CC4)CC3)c(F)c2)n1 [Example E112, 1-[2-Fluoro-4-(3-methyl-1,2,4-oxadiazol-5-yl)phenyl]-4-{[1-(1-methylethyl)-4-piperidinyl]oxy}piperidine hydrochloride]"
4,≤ 1,"Cc1noc(-c2ccc(N3CCC(OC4CCN(C(C)C)CC4)CC3)cc2F)n1 [Example E113, 1-[3-Fluoro-4-(3-methyl-1,2,4-oxadiazol-5-yl)phenyl]-4-{[1-(1-methylethyl)-4-piperidinyl]oxy}piperidine hydrochloride]"

# The next lines start with the molecule.
row,SMILES,Ki [nM]
1,"CC(C)N1CCC(OC2CCN(c3ccc(C(=O)NC4CCC4)nc3)CC2)CC1 [Example E105, N-Cyclobutyl-5-(4-{[1-(1-methylethyl)-4-piperidinyl]oxy}-1-piperidinyl)-2-pyridinecarboxamide]",≤ 1
2,"CC(C)N1CCC(OC2CCN(c3ccc(C(=O)NCCCCl)cc3)CC2)CC1 [Example E106, N-(3-Chloropropyl)-4-(4-{[1-(1-methylethyl)-4-piperidinyl]oxy}-1-piperidinyl)benzamide hydrochloride]",≤ 1
3,"O=C(NCCCCl)c1ccc(N2CCC(OC3CCN(C4CCC4)CC3)CC2)cn1 [Example E107, N-(3-Chloropropyl)-5-{4-[(1-cyclobutyl-4-piperidinyl)oxy]-1-piperidinyl}-2-pyridinecarboxamide hydrochloride]",≤ 1
4,"CC(C)N1CCC(OC2CCN(c3ccc(C(=O)NCCCCl)nc3)CC2)CC1 [Example E108, N (3-Chloropropyl)-5-(4-{[1-(1-methylethyl)-4-piperidinyl]oxy}-1-piperidinyl)-2-pyridinecarboxamide hydrochloride]",≤ 1
5,"CC(=O)c1ccc(N2CCC(OC3CCN(C4CCC4)CC3)CC2)c(F)c1 [Example E109, 1-(4-{4-[(1-Cyclobutyl-4-piperidinyl)oxy]-1-piperidinyl}-3-fluorophenyl)ethanone]",≤ 1
